Assay results taken from PubChem BioAssay (NCI).
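Five compound concentrations were applied to cells in 96-well plates for 48 hours; endpoints were derived by simple linear interpolation of the resulting dose-response curve. TGI denotes the concentration required for complete inhibition of growth.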

Assays:
Assay in all cases: DTP human tumour cell line panel, 48 h
NCI-H23 lung = system: NCI-H23 lung
U251 CNS = system: U251 CNS
MCF7 breast = system: MCF7 breast
HL-60(TB) leukemia = system: HL-60(TB) leukemia
HCC-2998 colon = system: HCC-2998 colon
SF-539 CNS = system: SF-539 CNS
COLO 205 colon = system: COLO 205 colon
NCI/ADR-RES ovarian = system: NCI/ADR-RES ovarian
SK-MEL-28 melanoma = system: SK-MEL-28 melanoma
ACHN renal = system: ACHN renal
UO-31 renal = system: UO-31 renal
HCT-15 colon = system: HCT-15 colon
EKVX NSCLC = system: EKVX NSCLC
NCI-H460 lung = system: NCI-H460 lung
DU-145 prostate = system: DU-145 prostate
MOLT-4 leukemia = system: MOLT-4 leukemia
RPMI-8226 leukemia = system: RPMI-8226 leukemia

SMILES | TGI (NCI-H23 lung) [µM] | TGI (U251 CNS) [µM] | TGI (MCF7 breast) [µM] | TGI (HL-60(TB) leukemia) [µM] | TGI (HCC-2998 colon) [µM] | TGI (SF-539 CNS) [µM] | TGI (COLO 205 colon) [µM] | TGI (NCI/ADR-RES ovarian) [µM] | TGI (SK-MEL-28 melanoma) [µM] | TGI (ACHN renal) [µM] | TGI (UO-31 renal) [µM] | TGI (HCT-15 colon) [µM] | TGI (EKVX NSCLC) [µM] | TGI (NCI-H460 lung) [µM] | TGI (DU-145 prostate) [µM] | TGI (MOLT-4 leukemia) [µM] | TGI (RPMI-8226 leukemia) [µM]
c1ccc(C2(c3cc4ccccc4[nH]3)OCCO2)nc1 | > 100 | > 100 | > 100 | > 100 | > 100 | > 100 | > 100 | > 100 | > 100 | > 100 | > 100 | > 100 | > 100 | > 100 | > 100 |  | 
CC(=O)O[C@H]1[C@@H](OC2CCCC2(c2ccccc2)c2ccccc2)O[N+]([O-])=C[C@@H]1c1ccccc1 (some centres undefined) | 35.9 | 27.3 | 11.3 | 5.71 | 27.2 |  | > 46 | 12.9 | 8.65 | 12.5 | 23.6 | 16.7 | 30.4 | 60.2 | 23.7 | 7.54 | 18.9
C#CC(O)/C=C/C(O)CCCC(O)CC#CC(O)C#CCCCCC(O)/C=C/CCCCCC(=O)CCCCCCCCCCCCCC(O)C(O)C#CC(=O)O (centres undefined) | > 25 | > 25 | > 25 | > 25 | > 25 |  | > 25 | > 25 | > 25 | > 25 | > 25 | > 25 | > 25 | > 25 | > 25 | > 25 | > 25
COC(=O)C1=C(C)NC(CF)=C(C(=O)OC)C1c1cccc2c(=O)c3ccccc3oc12 (centres undefined) | > 100 |  | > 100 | > 100 | > 100 | > 100 | 22.8 | 27.8 | > 100 | > 100 | 92.8 | > 100 | > 100 | > 100 | > 100 | > 100 | > 100
COc1cc2c(cc1OC)C1CN3CCCC3C(O)C1c1cc(OC)c(OC)cc1-2 (centres undefined) | > 100 | > 100 | > 100 | > 100 | > 100 |  | > 100 | > 100 | > 100 | > 100 | > 100 | > 100 | > 100 | > 100 | > 100 | > 100 | > 100
COC1(OC)CCCCCCCCC(OC)(OC)CCCCCCCC1 | > 100 | > 100 | > 100 | > 100 | > 100 | > 100 | > 100 | > 100 | > 100 | > 100 | 10.9 | > 100 | > 100 | > 100 | > 100 |  | 
CC(C)(C)OC(=O)NC(Cc1ccc(OC(C)(C)C)cc1)C(=O)N[C@H]1CC[C@H](C(=O)O)C1 (some centres undefined) | > 100 | > 100 | > 100 | > 100 | > 100 | > 100 | > 100 | > 100 | > 100 | > 100 |  | > 100 | > 100 | > 100 | > 100 | > 100 | > 100
O=c1c2ccccc2nc(-c2ccccc2)n1/N=C/c1ccccc1[N+](=O)[O-] | 58.8 | > 94.8 | > 100 | > 100 | > 100 | > 100 | > 100 | > 100 | > 100 | > 100 |  | > 100 | > 100 | > 100 | > 100 | > 100 | > 100
O=[N+]([O-])c1ccc(C2=NOC(c3ccccc3)N2C23CC4CC(CC(C4)C2)C3)cc1 (centres undefined) | > 100 | > 100 | 60.1 | > 100 | > 100 | > 100 | 88.1 | > 100 | > 100 | > 100 | 67.3 | > 100 | > 100 | 47.5 | 95 | 37.8 | 
CC1CCC2C(C)C(OC(=O)CCC(=O)O)OC3OC4(C)CCC1C32OO4 (centres undefined) |  | 31.3 | 28.5 | 4.65 | 54.3 | 29.1 | 6.71 | > 100 | > 100 | 18.3 | 3.88 | > 100 | 32.7 | 33.4 | 63.4 | 15 | 24.1
CC1(C)COC(c2cccc(C(O)c3ccc(Cl)cc3)c2)=N1 (centres undefined) | 64.1 | 59.6 | 39.6 | > 100 | 64.7 | 42.5 | 34 | 77.2 | > 100 | > 100 | 46.7 |  | > 100 | > 100 | > 100 | 59.3 | 89.1
c1ccc(CN2C3C4N(Cc5ccccc5)C2C2N(Cc5ccccc5)C(C(N2Cc2ccccc2)N4Cc2ccccc2)N3Cc2ccccc2)cc1 | > 100 | > 100 | > 100 | > 100 | > 100 | > 100 | > 100 | > 100 | > 100 | > 100 |  | > 100 | > 100 |  | > 100 | > 100 | > 100
O=C(c1ccc(Cl)c(Cl)c1)N(C(=S)OC12CC3CC(CC(C3)C1)C2)c1ccccc1 | > 100 | > 100 | > 100 | 69.9 | > 100 | > 100 | 29.4 | > 100 | > 100 | > 100 | 64.3 | > 100 | 72.5 | > 100 | > 100 |  | 
COC(=O)C1=C(N)C2=C(N)Oc3ccccc3C2CC1=C(C#N)C#N (centres undefined) | 54 | > 100 | 93.1 | > 100 | 32.9 | 71.2 | 44.1 | 47.5 |  | 72.8 | 53.6 | 36.8 | 84.4 |  | 61.9 | > 100 | 48.6
